In brackets after ≈: the same amount, converted by molar mass. Read-outs that look alike come from different tables or passages of the source.
Key:
Format in all cases: physicochemical
[1] = Storage stability of crystalline forms at 40° C. for 20 days, purity and content by HPLC; settings: for Content: external standard method; for Purity: internal standard method
Protocol: Crystalline forms II, III, VI and VII (obtained through embodiment 3) are each placed in thermostatic containers at a temperature of 40° C. and stored for 20 days, with the stability of these crystalline samples being studied using the method of High Performance Liquid Chromatography.
1. Purity Measurement of the Sample
Chromatographic conditions: Octadecyl silane chemically bonded silica is used as packing; a mixed solution of 10 mmol/L phosphate buffer (adjusted to pH 7.0 with sodium hydroxide) and acetonitrile in the ratio 2:7 by volume acts as the mobile phase; column temperature 40° C.; and detection wavelength 220 nm. Purity is measured using an internal standard method.
In the mobile phase, crystalline forms II, III, VI and VII are distributed into 1 mg/mL solutions, 10 μL of each of which are then passed into a liquid chromatograph, with their chromatograms being recorded.
The reference sample purity measurement method was used, with measurements being made using an external standard method, the results are shown in Table I.

[2] = Measurement of water solubility (HPLC, external standard method)
Source text: 3. Measurement of Water Solubility
The HPLC method was used to determine water solubility, with measurements being made using an external standard method.

[3] = Determination of crystalline stability (pharmacopoeia stability assessment method); design: key: ✓: stable; x: unstable; settings: for Crystalline stability, influencing factor: high temperature / Crystalline stability, influencing factor: high humidity / Crystalline stability, influencing factor: illumination: exposed for 10 days; for Crystalline stability, influencing factor: high temperature: 60° C.; for Crystalline stability, influencing factor: high humidity: 92.5% RH; for Crystalline stability, influencing factor: high humidity / Crystalline stability, long term testing (6 months) / Crystalline stability, long term testing (9 months) / Crystalline stability, long term testing (12 months): 25° C.; for Crystalline stability, influencing factor: illumination: 4500 lx; for Crystalline stability, accelerated testing: hermetically sealed for 6 months, 40° C., 75% RH; for Crystalline stability, long term testing (6 months) / Crystalline stability, long term testing (9 months) / Crystalline stability, long term testing (12 months): hermetically sealed, 60% RH
Protocol: 4. Determination of Crystalline Stability
Measured using the pharmacopoeia stability assessment method: • 1) Influencing factor testing (exposed for 10 days): high temperature (60° C.), illumination (4500 lx), high humidity (92.5% RH, 25° C.) • 2) Accelerated testing (hermetically sealed for 6 months): temperature 40° C., humidity 75% RH • 3) Long term testing (hermetically sealed for 12 months): temperature 25° C., humidity 60% RH

[4] = After storage in thermostatically controlled containers at 40° C. for 20 days

| Compound | Content [1, 4] | Purity [1, 4] | Content ([1]; Before storage) | Purity ([1]; Before storage) | solubility [2] | Crystalline stability, influencing factor: high temperature [3] | Crystalline stability, influencing factor: high humidity [3] | Crystalline stability, influencing factor: illumination [3] | Crystalline stability, accelerated testing [3] | Crystalline stability, long term testing (6 months) [3] | Crystalline stability, long term testing (9 months) [3] | Crystalline stability, long term testing (12 months) [3] | solubility ([2]; read-out: Solubility) |
| --- | --- | --- | --- | --- | --- | --- | --- | --- | --- | --- | --- | --- | --- |
| COc1ccc2cccc(CCNC(C)=O)c2c1 [Crystalline form II, N-[2-(7-methoxy-1-naphthyl)ethyl]acetamide] | 99.6% | 99.3% | 99.5% | 99.7% | 301 µg/mL (≈ 1240 µM) | ✓* | ✓ | ✓ | ✓ | ✓ | ✓ | ✓ |  |
| COc1ccc2cccc(CCNC(C)=O)c2c1 [Crystalline form III, N-[2-(7-methoxy-1-naphthyl)ethyl]acetamide] | 99.4% | 99.3% | 99.5% | 99.9% |  |  |  |  |  |  |  |  |  |
| COc1ccc2cccc(CCNC(C)=O)c2c1 [Crystalline form VI, N-[2-(7-methoxy-1-naphthyl)ethyl]acetamide] | 99.1% | 99.6% | 99.3% | 99.7% |  | x* | ✓ | ✓ | ✓ | ✓ | ✓ | x |  |
| COc1ccc2cccc(CCNC(C)=O)c2c1 [Crystalline form VII, N-[2-(7-methoxy-1-naphthyl)ethyl]acetamide] | 99.6% | 99.7% | 99.8% | 99.8% |  | ✓ | ✓ | ✓ | ✓ | ✓ | ✓ | ✓ | 330 µg/mL (≈ 1360 µM) |
